Source: patent US20100099677A1, “Compounds, Compositions and Methods Comprising Thiazole Derivatives” (Institute for OneWorld Health, priority 2008, published 2010)
pIC50: −log10 of the molar value.

Biological target: T1, CFTR (Homo sapiens, UniProt P13569)
T1 construct: results in the phosphorylation and opening of CFTR anion channels; host or cells: Human colonic T84 cells
Experiment: T84 assay (FLIPR membrane potential dye, forskolin/IBMX-stimulated CFTR channel activity)
Format: cell-based
Conditions: human colonic T84 cells, average of at least 2 runs unless otherwise indicated
Protocol: (§1) For example, Human colonic T84 cells can be acquired from the European Collection of Cell Cultures (ECACC) and grown in standard culture conditions as described by the supplier. On the day before assay 25,000 T84 cells per well are plated into standard black walled, clear bottom 384-well assay plates in standard growth medium consisting of DMEM:F12 with 10% FBS and incubated overnight. On the day of the assay the plates are washed using a standard assay buffer (HBSS with 10 mM Hepes) and incubated for 15 minutes in serum free cell culture medium before the addition of a commercially available membrane potential sensitive fluorescent dye (FLIPR Red membrane potential dye, Molecular Devices Corporation). T84 cells are incubated with the FLIPR Red membrane potential dye for 45 minutes in the presence and absence of test compound before being transferred to a commercially available fluorescence imaging plate reader (FLIPR384, Molecular Devices Corporation). Fluorescence levels are monitored continuously every second for 150 seconds; after an initial 10 second baseline, CFTR channel activity is stimulated through the addition of 10 μM forskolin in the presence of 100 μM of the phosphodiesterase inhibitor iso-butyl-methylxanthine (IBMX). Addition of the forskolin leads to the activation of intracellular adenylyl cylase 1, elevating cAMP levels and results in the phosphorylation and opening of CFTR anion channels. CFTR channel opening causes chloride ion efflux and subsequent depolarization of the cells, which is measured by an increase in fluorescence. CFTR inhibitor compounds prevent cell depolarization and the associated increase in fluorescence.
as §1, with “Human colonic” for “For example, Human colonic”, “T84 cells are acquired from” for “T84 cells can be acquired from”, “(ECACC) and are grown in” for “(ECACC) and grown in”

T1 sequence (P13569 whole entry): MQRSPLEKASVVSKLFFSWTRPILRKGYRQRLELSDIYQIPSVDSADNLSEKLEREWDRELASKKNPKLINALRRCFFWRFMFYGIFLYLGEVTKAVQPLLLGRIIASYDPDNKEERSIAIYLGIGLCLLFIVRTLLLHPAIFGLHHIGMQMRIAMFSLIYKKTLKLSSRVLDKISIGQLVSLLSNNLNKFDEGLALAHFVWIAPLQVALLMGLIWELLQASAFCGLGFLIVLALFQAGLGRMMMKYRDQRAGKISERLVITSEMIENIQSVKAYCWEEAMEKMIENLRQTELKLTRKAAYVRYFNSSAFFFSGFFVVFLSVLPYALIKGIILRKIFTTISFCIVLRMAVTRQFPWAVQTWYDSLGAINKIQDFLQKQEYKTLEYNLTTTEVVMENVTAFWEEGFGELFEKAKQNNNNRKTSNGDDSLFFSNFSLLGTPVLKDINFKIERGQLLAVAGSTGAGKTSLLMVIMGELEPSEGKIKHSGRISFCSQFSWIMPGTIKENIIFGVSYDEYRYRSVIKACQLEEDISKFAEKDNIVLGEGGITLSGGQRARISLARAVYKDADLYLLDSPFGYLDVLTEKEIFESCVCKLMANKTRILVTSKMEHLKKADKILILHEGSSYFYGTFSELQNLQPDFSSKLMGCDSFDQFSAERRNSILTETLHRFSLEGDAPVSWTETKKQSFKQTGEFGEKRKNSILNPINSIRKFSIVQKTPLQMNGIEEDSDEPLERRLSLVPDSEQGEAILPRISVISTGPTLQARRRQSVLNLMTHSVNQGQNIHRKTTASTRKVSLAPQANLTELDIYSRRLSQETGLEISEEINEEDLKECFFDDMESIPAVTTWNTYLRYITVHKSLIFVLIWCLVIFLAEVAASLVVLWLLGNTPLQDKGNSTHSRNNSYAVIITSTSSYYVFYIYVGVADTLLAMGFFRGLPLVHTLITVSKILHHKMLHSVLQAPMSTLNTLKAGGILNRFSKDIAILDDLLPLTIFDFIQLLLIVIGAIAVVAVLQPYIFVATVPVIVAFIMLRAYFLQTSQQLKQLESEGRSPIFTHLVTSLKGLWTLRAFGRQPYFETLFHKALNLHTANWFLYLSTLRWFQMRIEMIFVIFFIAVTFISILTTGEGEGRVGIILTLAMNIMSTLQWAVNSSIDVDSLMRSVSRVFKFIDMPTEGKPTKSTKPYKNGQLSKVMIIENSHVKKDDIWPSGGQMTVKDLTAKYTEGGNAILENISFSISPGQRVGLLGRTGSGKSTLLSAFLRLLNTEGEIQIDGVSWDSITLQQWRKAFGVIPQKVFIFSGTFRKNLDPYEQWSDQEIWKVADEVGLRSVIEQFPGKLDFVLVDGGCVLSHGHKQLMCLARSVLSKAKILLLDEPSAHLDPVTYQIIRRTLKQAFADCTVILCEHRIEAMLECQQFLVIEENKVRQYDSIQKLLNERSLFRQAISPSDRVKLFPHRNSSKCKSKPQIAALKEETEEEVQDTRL

**Q.** `CN(Cc1cccc(C(F)(F)F)c1)C(=O)c1nc(-c2cc(Cl)c(O)c(Cl)c2)cs1` [Compound 67, 4-(3,5-Dichloro-4-hydroxyphenyl)-N-methyl-N-(3-(trifluoromethyl)benzyl)thiazole-2-carboxamide] was tested. Which pIC50 did it give?
**A.** Its pIC50 is 5.39.

**Q.** `O=C(c1nc(-c2cc(Br)c(O)c(Br)c2O)cs1)N1CCC(Cc2ccccc2)CC1` [Compound 68, (4-Benzylpiperidin-1-yl)(4-(3,5-dibromo-2,4-dihydroxyphenyl)thiazol-2-yl)methanone] was tested. Which pIC50 did it give?
**A.** The pIC50 was 5.32.

**Q.** `O=C(NC(c1ccccc1)c1ccccc1)c1nc(-c2cc(Cl)c(O)c(Cl)c2)cs1` [Compound 69, N-Benzhydryl-4-(3,5-dichloro-4-hydroxyphenyl)thiazole-2-carboxamide] was tested. Which pIC50 did it give?
**A.** Its pIC50 is 5.19.

**Q.** With `O=C(c1nc(-c2cc(Cl)c(O)c(Cl)c2)cs1)N1CCC(Cc2ccccc2)CC1` [Compound 70, (4-benzylpiperidin-1-yl)(4-(3,5-dichloro-4-hydroxyphenyl)thiazol-2-yl)methanone] as the compound, how does the pIC50 read?
**A.** The pIC50 was 5.05.

**Q.** `O=C(NC(c1ccccc1)c1ccccc1)c1nc(-c2cc(Br)c(O)c(Br)c2)cs1` [Compound 71, N-Benzhydryl-4-(3,5-dibromo-4-hydroxyphenyl)thiazole-2-carboxamide] was tested. Which pIC50 did it give?
**A.** The pIC50 was 5.03.

**Q.** `O=C(c1nc(-c2cc(Br)c(O)c(Br)c2)cs1)N1CCC(Cc2ccccc2)CC1` [Compound 72, (4-Benzylpiperidin-1-yl)[4-(3,5-dibromo-4-hydroxyphenyl)thiazol-2-yl]methanone] was tested. Which pIC50 did it give?
**A.** The pIC50 was 4.95.

**Q.** With `O=C(c1nc(-c2cc(Br)c(O)c(Br)c2)cs1)N1CCN(c2cccc(C(F)(F)F)c2)CC1` [Compound 73, (4-(3,5-Dibromo-4-hydroxyphenyl)thiazol-2-yl)(4-(3-(trifluoromethyl)phenyl)piperazin-1-yl)methanone] as the compound, how does the pIC50 read?
**A.** The pIC50 was 4.91.

**Q.** How did the pIC50 turn out when `O=C(c1nc(-c2cc(Cl)c(O)c(Cl)c2)cs1)N1CCN(c2cccc(C(F)(F)F)c2)CC1` [Compound 74, (4-(3,5-Dichloro-4-hydroxyphenyl)thiazol-2-yl)(4-(3-(trifluoromethyl)phenyl)piperazin-1-yl)methanone] was run?
**A.** The pIC50 was 4.70.

**Q.** `O=C(NCc1ccc(Oc2ccccc2)cc1)c1nc(-c2cc(Br)c(O)c(Br)c2)cs1` [Compound 75, 4-(3,5-Dibromo-4-hydroxyphenyl)-N-(4-phenoxybenzyl)thiazole-2-carboxamide] was tested. Which pIC50 did it give?
**A.** The pIC50 was 4.62.

**Q.** `O=C(NCc1ccc(Oc2ccccc2)cc1)c1nc(-c2cc(Cl)c(O)c(Cl)c2)cs1` [Compound 76, 4-(3,5-Dichloro-4-hydroxyphenyl)-N-(4-phenoxybenzyl)thiazole-2-carboxamide] was tested. Which pIC50 did it give?
**A.** The pIC50 was 4.53.

**Q.** How did the pIC50 turn out when `O=C(NCc1cccc(OC(F)(F)F)c1)c1nc(-c2cc(Br)c(O)c(Br)c2O)cs1` [Compound 78, 4-(3,5-dibromo-2,4-dihydroxyphenyl)-N-(3-(trifluoromethoxy)benzyl)thiazole-2-carboxamide] was run?
**A.** The pIC50 was 5.59.

**Q.** How did the pIC50 turn out when `O=C(NCc1ccc(Oc2ccccc2)cc1)c1nc(-c2cc(Br)c(O)c(Br)c2O)cs1` [Compound 79, 4-(3,5-dibromo-2,4-dihydroxyphenyl)-N-(4-phenoxybenzyl)thiazole-2-carboxamide] was run?
**A.** The pIC50 was 4.94.

**Q.** How did the pIC50 turn out when `O=C(NCc1cccc(OC(F)(F)F)c1)c1csc(-c2cc(Cl)c(O)c(Cl)c2)n1` [Compound 80, 2-(3,5-Dichloro-4-hydroxyphenyl)-N-(3-(trifluoromethoxy)benzyl)thiazole-4-carboxamide] was run?
**A.** Its pIC50 is 4.82.

**Q.** With `O=C(NCC(c1ccccc1)c1ccccc1)c1nc(-c2cc(Br)c(O)c(Br)c2O)cs1` [Compound 81, 4-(3,5-dibromo-2,4-dihydroxyphenyl)-N-(2,2-diphenylethyl)thiazole-2-carboxamide] as the compound, how does the pIC50 read?
**A.** The pIC50 was 5.37.

**Q.** With `O=C(c1nc(-c2cc(Br)c(O)c(Br)c2O)cs1)N1CCN(c2cccc(C(F)(F)F)c2)CC1` [Compound 82, (4-(3,5-dibromo-2,4-dihydroxyphenyl)thiazol-2-yl)(4-(3-(trifluoromethyl)phenyl)piperazin-1-yl)methanone] as the compound, how does the pIC50 read?
**A.** The pIC50 was 4.90.

**Q.** How did the pIC50 turn out when `CCOC(=O)CCCOc1c(-c2csc(C(=O)N3CCC(Cc4ccccc4)CC3)n2)cc(Br)c(O)c1Br` [Compound 83, Ethyl 4-(6-(2-(4-benzylpiperidine-1-carbonyl)thiazol-4-yl)-2,4-dibromo-3-hydroxyphenoxy)butanoate] was run?
**A.** Its pIC50 is 5.38.

**Q.** How did the pIC50 turn out when `O=C(c1nc(-c2cc(Br)c(O)c(Br)c2OCCN2CCOCC2)cs1)N1CCC(Cc2ccccc2)CC1` [Compound 86, (4-benzylpiperidin-1-yl)(4-(3,5-dibromo-4-hydroxy-2-(2-morpholinoethoxy)phenyl)thiazol-2-yl)methanone] was run?
**A.** Its pIC50 is 5.52.

**Q.** How did the pIC50 turn out when `COCCOCCOc1c(-c2csc(C(=O)N3CCC(Cc4ccccc4)CC3)n2)cc(Br)c(O)c1Br` [Compound 87, (4-benzylpiperidin-1-yl)(4-(3,5-dibromo-4-hydroxy-2-(2-(2-methoxyethoxy)ethoxy)phenyl)thiazol-2-yl)methanone] was run?
**A.** The pIC50 was 5.76.

**Q.** With `Cc1cccc(COc2c(-c3csc(C(=O)N4CCC(Cc5ccccc5)CC4)n3)cc(Br)c(O)c2Br)n1` [Compound 88, (4-benzylpiperidin-1-yl)(4-(3,5-dibromo-4-hydroxy-2-((6-methylpyridin-2-yl)methoxy)phenyl)thiazol-2-yl)methanone] as the compound, how does the pIC50 read?
**A.** Its pIC50 is 4.81.

**Q.** With `O=C(O)CCCOc1c(-c2csc(C(=O)N3CCC(Cc4ccccc4)CC3)n2)cc(Br)c(O)c1Br` [Compound 89, 4-(6-(2-(4-Benzylpiperidine-1-carbonyl)thiazol-4-yl)-2,4-dibromo-3-hydroxyphenoxy)butanoic acid] as the compound, how does the pIC50 read?
**A.** Its pIC50 is 5.06.
